Results from patent publication US20230295133A1, “PROCESS FOR PREPARING A COMPOUND USEFUL TO TREAT MYCOSES” (PULMOCIDE LIMITED, priority 2014, published 2023).
≈ marks a conversion by molar mass, not a printed value.

What was measured:
[1] = tested on: Chaectomium globosum ATCC44699; experiment: Fungus panel screening, CLSI broth microdilution; format: cell-based
Procedure: Fungus panel screening was conducted by Eurofins Panlabs Inc. The MIC and MIC50 values of the test articles were determined following the guidelines of the Clinical and Laboratory Standards Institute, broth microdilution methods for yeast (CLSI M27-A2), (CLSI, 2002) and for filamentous fungi (CLSI M38-A), (CLSI, 2008).

[2] = tested on: Aspergillus fumigatus (NCPF2010) invasion; experiment: Aspergillus fumigatus infection of human alveoli bilayers (transwells), GM in lower chamber; format: cell-based; conditions: Posaconazole 0.01 µg/mL lower chamber
Procedure: In vitro models of human alveoli, consisting of a bilayer of human alveolar epithelial cells and endothelial cells, were prepared as previously described (Hope et al., 2007). This system allows administration of a test compound to the upper (“air” space) and/or lower (“systemic” space) compartments. This flexibility has been exploited to explore the effects of combination treatments by dosing compound Example 1 to the upper chamber and posaconazole or other anti-fungal agents to the lower chamber. Primary human pulmonary artery endothelial cells (HPAEC) were harvested and diluted to 10^6 cells/mL in EGM-2 media (Lonza, Basel, Switzerland). Transwells were inverted and the cell suspension (100 µL/well) was applied to the base of each transwell. The inverted transwells were incubated at RT within a flow hood for 2 hr after which they were turned upright. EGM-2 media was added to the lower (700 µL/well) and upper (100 µL/well) compartments and the transwells were incubated for 48 hr (37° C., 5% CO2). The EGM-2 media in the lower compartment was then replaced with fresh EGM-2 media. A549 cells were harvested and diluted to 5×10^5 cells/mL in 10% EBM, then added to the upper compartment (100 µL/well) of all transwells and the plates incubated for 72 hr (37° C., 5% CO2). Conidia of aspergillus fumigatus (the itraconazole sensitive strain NCPF2010 and the itraconazole resistant strain TR34-L98H) were cultured separately in Sabouraud dextrose agar for 3 days. A stock conidia suspension of either strain was prepared from a Sabouraud dextrose agar culture by washing with PBS-tween (10 mL; PBS containing 0.05% Tween-20, 100 U/mL Penicillin and 100 U/mL Streptomycin). The conidia count was assessed using a Neubauer haemocytometer and adjusted to 10^6 conidia/mL with PBS. A working stock of conidia was prepared in EBM (conc of 10^5 conidia/mL) immediately prior to use.
Test and reference compounds (or neat DMSO as the vehicle) were added to the appropriate wells of 24-well plates (3 µL/well containing 600 µL of 2% FBS EBM) for lower compartment treatment and to 96-well plates (1 µL/well containing 200 µL of 2% FBS EBM) for the treatment of the upper compartment, to provide a final DMSO concentration of 0.5%. The media in the upper compartment was aspirated and that containing the appropriate test and reference compounds, or vehicle, were added (100 µL/well). Transwells were then transferred into the 24-well plate containing the test and reference compounds or DMSO vehicle. After incubation for 1 hr (35° C., 5% CO2) the conidia suspension (10 µL/well) was added to the upper compartment of each transwell. Plates were then incubated for 24 hr (35° C., 5% CO2). Supernatants from each compartment (5 µL/compartment) were collected and stored (-20° C.). Media was replaced daily after collection of the supernatants and all wells were treated with test and reference compounds or with DMSO, as described above, for 3 days. Samples continued to be collected until fungal growth was visible by eye in all transwells. The levels of GM in the supernatant in lower compartment were then measured by ELISA (BioRad, CA, USA) as an index of aspergillus fumigatus invasion.

[3] = tested on: aspergillus fumigatus (ATCC 13073 [strain: NIH 5233]); experiment: In vivo anti-fungal activity, prophylactic and therapeutic treatment of infected immunocompromised neutropenic mice; parameters: species or system A/J mice; conditions: for Cell numbers in BALF, Macrophage / Cell numbers in BALF, Neutrophil / TNFα conc in serum: mean ± SEM
[4] = tested on: aspergillus fumigatus (ATCC 13073 [strain: NIH 5233]); experiment: Survival of severely immunosuppressed neutropenic infected mice, monotherapy and combination; format: in vivo, A/J mice; conditions: Example 1 0.4 mg/mL (in); Posaconazole 1 mg/kg (po); once daily days 1-6
Procedure: On day 0, animals were infected intranasally with 35 µL of the spore suspension (1.67 × 10^8 spores/mL in physiological saline) of aspergillus fumigatus (ATCC 13073 [strain: NIH 5233]). Compound Example (I), prepared as a suspension in isotonic saline (0.4 mg/mL), was dosed once daily by an intra-nasal injection (35 µL/mouse) on days 1-6 after infection. Posaconazole (1 mg/kg) was given orally once daily on days 1-6 after infection. Body weight and survival were monitored daily up to day 7.

[5] = treatment day 1, Example 1 0.1 µg/mL upper chamber
[6] = treatment day 6, Example 1 0.1 µg/mL upper chamber
[7] = prophylactic treatment (days 0, 1, 2 and 3), 0.4 mg/mL
[8] = prophylactic treatment, 0.08 mg/mL
[9] = prophylactic treatment, 0.4 mg/mL
[10] = prophylactic treatment, 2 mg/mL
[11] = therapeutic treatment (days 1, 2 and 3), 0.4 mg/mL
[12] = therapeutic treatment, 0.4 mg/mL
[13] = therapeutic treatment, 10 mg/mL

Cc1cc(N2CCN(c3ccc(C(=O)Nc4ccc(F)cc4)cc3)CC2)ccc1OC[C@@H]1CO[C@@](Cn2cncn2)(c2ccc(F)cc2F)C1 [Example 1, 4-(4-(4-(((3R,5R)-5-((1H-1,2,4-Triazol-1-yl)Methyl)-5-(2,4-Difluorophenyl)Tetra Hydrofuran-3-yl)Methoxy)-3-Methylphenyl)Piperazin-1-yl)-N-(4-Fluorophenyl) Benzamide] was tested, and the MIC50 ([1]; 50% inhibition by visual inspection (CLSI)) was 0.063 mg/L (≈ 0.0923 µM), the MIC ([1]; 100% inhibition by visual inspection (CLSI), read-out: MIC100) was greater than 8 mg/L and the “GM Levels in the Lower Chamber, OD value” ([2]; treatment day 0, Example 1 0.1 µg/mL upper chamber) was 0 OD. For the same molecule, the “GM Levels in the Lower Chamber, % inhibition vs. control” value [2, 5] was 86%, the “GM Levels in the Lower Chamber, OD value” [2, 5] was 0.091 OD and the “GM Levels in the Lower Chamber, % inhibition vs. control” value ([2]; treatment day 2, Example 1 0.1 µg/mL upper chamber) was 3.4%. For the same molecule, the “GM Levels in the Lower Chamber, % inhibition vs. control” value ([2]; treatment day 3, Example 1 0.1 µg/mL upper chamber) was 3.7%, the “GM Levels in the Lower Chamber, % inhibition vs. control” value ([2]; treatment day 4, Example 1 0.1 µg/mL upper chamber) was 4.5% and the “GM Levels in the Lower Chamber, % inhibition vs. control” value ([2]; treatment day 5, Example 1 0.1 µg/mL upper chamber) was 0.3%. The “GM Levels in the Lower Chamber, % inhibition vs. control” value [2, 6] was -0.3%, the “GM Levels in the Lower Chamber, OD value” [2, 6] was 1.18 OD and the “GM Levels in the Lower Chamber, % inhibition vs. control” value ([2]; treatment day 7, Example 1 0.1 µg/mL upper chamber) was 0.9%. The “GM Levels in the Lower Chamber, % inhibition vs. control” value ([2]; treatment day 8, Example 1 0.1 µg/mL upper chamber) was 2.8%, the “% Inhibition versus Infected Controls, GM in BALF” value [3, 7] was 92% and the “% Inhibition versus Infected Controls, GM in serum” value [3, 7] was 95%. The “% Inhibition versus Infected Controls, Lung Fungal Load” value [3, 7] was 81%, the “Macrophage in BALF, % inhibition” value [3, 8] was 38% and the “Neutrophil in BALF, % inhibition” value [3, 8] was 24%. The “Cell numbers in BALF, Macrophage” value [3, 8] was 0.40 ± 0.15 ×10^5/mL, the “Cell numbers in BALF, Neutrophil” value [3, 8] was 0.37 ± 0.04 ×10^5/mL and the “Macrophage in BALF, % inhibition” value [3, 9] was 51%. For the same molecule, the “Neutrophil in BALF, % inhibition” value [3, 9] was 47%, the “Cell numbers in BALF, Macrophage” value [3, 9] was 0.32 ± 0.07 ×10^5/mL and the “Cell numbers in BALF, Neutrophil” value [3, 9] was 0.26 ± 0.12 ×10^5/mL. The “TNFα conc in serum” value [3, 9] was 7.3 ± 3.5 pg/mL, the “Macrophage in BALF, % inhibition” value [3, 10] was 60% and the “Neutrophil in BALF, % inhibition” value [3, 10] was 55%. The “Cell numbers in BALF, Macrophage” value [3, 10] was 0.26 ± 0.05 ×10^5/mL, the “Cell numbers in BALF, Neutrophil” value [3, 10] was 0.22 ± 0.04 ×10^5/mL and the “TNFα conc in serum” value [3, 10] was 4.7 ± 0.4 pg/mL. For the same molecule, the “% Inhibition versus Infected Control, GM in BALF” value [3, 11] was 94%, the “% Inhibition versus Infected Control, GM in serum” value [3, 11] was 91% and the “% Inhibition versus Infected Control, Lung Fungal Load” value [3, 11] was 97%. The “Macrophage in BALF, % inhibition” value [3, 12] was 34%, the “Neutrophil in BALF, % inhibition” value [3, 12] was 22% and the “Cell numbers in BALF, Macrophage” value [3, 12] was 0.43 ± 0.05 ×10^5/mL. For the same molecule, the “Cell numbers in BALF, Neutrophil” value [3, 12] was 0.38 ± 0.04 ×10^5/mL, the “TNFα conc in serum” value [3, 12] was 6.2 ± 0.5 pg/mL and the “Macrophage in BALF, % inhibition” value ([3]; therapeutic treatment, 2 mg/mL) was 38%. The “Neutrophil in BALF, % inhibition” value ([3]; therapeutic treatment, 2 mg/mL) was 31%, the “Cell numbers in BALF, Macrophage” value ([3]; therapeutic treatment, 2 mg/mL) was 0.40 ± 0.11 ×10^5/mL and the “Cell numbers in BALF, Neutrophil” value ([3]; therapeutic treatment, 2 mg/mL) was 0.34 ± 0.05 ×10^5/mL. The “TNFα conc in serum” value ([3]; therapeutic treatment, 2 mg/mL) was 5.5 ± 0.7 pg/mL, the “Macrophage in BALF, % inhibition” value [3, 13] was 51% and the “Neutrophil in BALF, % inhibition” value [3, 13] was 45%. The “Cell numbers in BALF, Macrophage” value [3, 13] was 0.32 ± 0.07 ×10^5/mL, the “Cell numbers in BALF, Neutrophil” value [3, 13] was 0.27 ± 0.08 ×10^5/mL and the “TNFα conc in serum” value [3, 13] was 4.9 ± 0.6 pg/mL. For the same molecule, the Median survival [4] was 6 days, the “No. of survivors on day 7” value [4] was 0/6 and the “Survivors on day 7 (%)” value [4] was 0%.
